From patent publication US20070142392A1, “Uses of rifamycins” (ActivBiotics, Inc., priority 2005, published 2007)
Converted amounts (≈) assume the structure as drawn. Read-outs that look alike come from different tables or passages of the source.

Legend:
[1] = tested on: C. trachomatis; test: MIC values, C. trachomatis (Table 2); format: cell-based
[2] = tested on: S. aureus; test: MIC values, S. aureus (Tables 1-4); format: cell-based
[3] = tested on: E. faecalis; test: MIC values, E. faecalis (Tables 1-4); format: cell-based; details: for MIC F. faecalis: Table 2
[4] = tested on: H. flu; format: cell-based
[5] = tested on: E. coli; test: MIC values, E. coli (Tables 1-4); format: cell-based
[6] = tested on: S. pneumo.; test: MIC values, S. pneumo. (Tables 1-4); format: cell-based
[7] = guinea pig, in vivo, ip
Text: (§4) For pharmacokinetic studies, non-infected animals were used. […] Teflon tissue cages were implanted into the flanks of guinea pigs. For pharmacokinetic studies, non-infected animals were used.

[8] = tested on: S. aureus ATCC29213; test: MIC by broth dilution method; format: cell-based; details: S. aureus ATCC29213, inoculum 5×10^5 CFU/ml
Experimental: (§1) FIG. 2A is a schematic illustration showing the peak drug concentration of Compound 86 (1.13 μg/ml) in cage fluid from non-infected animals after single dose of 12.5 mg/kg. […] In this medium, bacterial counts remained stable in the absence of antibacterial agents for >36 hours.
(§2) In this medium, bacterial counts remained stable in the absence of antibacterial agents for >36 hours.
(§3) To understand the relative efficacy of peak drug concentration, it is compared to the minimal inhibitory concentration (MIC), the minimal bactericidal concentration for logarithmic phase growth (MBClog) and the MBCstat. […] The MBClog was defined as antimicrobial concentration that reduced the original inoculum by […] after 24 hour incubation (i.e. 3 log 10 CFU/ml), as described in the Manual of Clinical Microbiology. The MBCstat was determined as described in Example 1.

[9] = tested on: S. aureus; test: Foreign-body (tissue cage) infection model, antimicrobial treatment; format: in vivo, guinea pigs; details: for Cure rate of removed cages: cages removed day 9; for Mean log10 CFU/ml ± SD in aspirated cage fluid, during treatment / no. culture negative/total no., cage fluid during treatment: day 4; for Mean log10 CFU/ml ± SD in aspirated cage fluid, after treatment / no. culture negative/total no., cage fluid after treatment: day 9
Experimental: For pharmacokinetic studies, non-infected animals were used. […] Antibiotics were administered intraperitoneally every 12 hours for four days (total eight doses). […] The cure rate is the fraction of cages in which the infection was eradicated. […] Following incubation, 50 μl of the TSB mixture was plated on blood agar plates to determine the presence of bacteria. A foreign-body infection model in guinea pigs was used for in vivo analysis of antimicrobials as described in Example 2, however in this example the animals were infected. […] Antibiotics were administered intraperitoneally every 12 hours for four days (total eight doses).

[10] = tested on: S. aureus ATCC29213; test: minimal bactericidal concentration for logarithmic phase growth (MBClog); format: cell-based
Experimental: as §1, §2, §3

[11] = tested on: S. aureus; test: minimal bactericidal concentration in the stationary growth phase (MBCstat); format: cell-based; details: Staphylococcus aureus, 1% glucose PBS pH 7.4 with 4% Muller Hinton Broth
Experimental: as §1, §2
The minimal bactericidal concentration in the stationary growth phase (MBCstat) was determined by using overnight bacterial cultures which were centrifuged and resuspended in medium containing 1% glucose supplemented phosphate buffered saline (PBS) pH 7.4 with 4% Muller Hinton Broth (Zimmerli et al., J Antimicrob. Chemother. 33:959-967 (1994)). In this medium, bacterial counts remained stable in the absence of antibacterial agents for >36 hours.

[12] = in vivo; details: albino, guinea pig, ip
Text: as §4

Row | SMILES | MIC C. trachomatis [1] [ng/mL] | MIC S. aureus [2] [ng/mL] | MIC F. faecalis [3] [ng/mL] | MIC H. flu [4] [ng/mL] | MIC E. coli [5] [ng/mL] | MIC S. pneumo. [6] [ng/mL] | MIC E. faecalis [3] [ng/mL] | also measured
1 | CO[C@H]1/C=C/O[C@@]2(C)Oc3c(C)c(O)c4c(=O)c(c5oc6c7c(cc(O)c6nc-5c4c3C2=O)N(C)CCN7C)NC(=O)/C(C)=C\C=C\[C@H](C)[C@H](O)[C@@H](C)[C@@H](O)[C@@H](C)[C@H](OC(C)=O)[C@@H]1C [Compound 80] | 0.064 (≈ 0.0723 nM) | 8 (≈ 9.04 nM) | 1000 (≈ 1130 nM) | 1000 (≈ 1130 nM) | 8000 (≈ 9040 nM) | 0.12 (≈ 0.136 nM) | – | –
2 | CO[C@H]1/C=C/O[C@@]2(C)Oc3c(C)c(O)c4c(=O)c(c5oc6c7c(cc(O)c6nc-5c4c3C2=O)N(C)CCN7C)NC(=O)/C(C)=C\C=C\[C@H](C)[C@H](O)[C@@H](C)[C@@H](O)[C@@H](C)[C@H](O)[C@@H]1C [Compound 81] | 1 (≈ 1.19 nM) | 500 (≈ 593 nM) | 1000 (≈ 1190 nM) | 2000 (≈ 2370 nM) | 8000 (≈ 9490 nM) | 60 (≈ 71.2 nM) | – | –
3 | CO[C@H]1/C=C/O[C@@]2(C)Oc3c(C)c(O)c4c(=O)c(c5oc6c7c(cc(O)c6nc-5c4c3C2=O)N(C)CCCN7C)NC(=O)/C(C)=C\C=C\[C@H](C)[C@H](O)[C@@H](C)[C@@H](O)[C@@H](C)[C@H](OC(C)=O)[C@@H]1C [Compound 82] | 0.064 (≈ 0.0712 nM) | 60 (≈ 66.7 nM) | 4000 (≈ 4450 nM) | 2000 (≈ 2220 nM) | >8000 | 8 (≈ 8.9 nM) | – | –
4 | CO[C@H]1/C=C/O[C@@]2(C)Oc3c(C)c(O)c4c(=O)c(c5oc6c7c(cc(O)c6nc-5c4c3C2=O)N(C)CCCN7C)NC(=O)/C(C)=C\C=C\[C@H](C)[C@H](O)[C@@H](C)[C@@H](O)[C@@H](C)[C@H](O)[C@@H]1C [Compound 83] | 1 (≈ 1.17 nM) | 120 (≈ 140 nM) | 1000 (≈ 1170 nM) | 2000 (≈ 2330 nM) | >8000 | 0.12 (≈ 0.14 nM) | – | –
5 | CO[C@H]1/C=C/O[C@@]2(C)Oc3c(C)c(O)c4c(=O)c(c5oc6c7c(cc(O)c6nc-5c4c3C2=O)N(C(C)C)CCN7C(C)C)NC(=O)/C(C)=C\C=C\[C@H](C)[C@H](O)[C@@H](C)[C@@H](O)[C@@H](C)[C@H](OC(C)=O)[C@@H]1C [Compound 84] | 10 (≈ 10.6 nM) | 60 (≈ 63.8 nM) | 4000 (≈ 4250 nM) | 2000 (≈ 2130 nM) | >8000 | 8 (≈ 8.5 nM) | – | –
6 | CO[C@H]1/C=C/O[C@@]2(C)Oc3c(C)c(O)c4c(=O)c(c5oc6cc(N7CCN(C)CC7)cc(O)c6nc-5c4c3C2=O)NC(=O)/C(C)=C\C=C\[C@H](C)[C@H](O)[C@@H](C)[C@@H](O)[C@@H](C)[C@H](O)[C@@H]1C [Compound 86] | – | 2 (≈ 2.33 nM) | – | 250 (≈ 292 nM) | 4000 (≈ 4670 nM) | 0.12 (≈ 0.14 nM) | 15 (≈ 17.5 nM) | Cmin ([7]; 3 mg/kg): 40 ± 10 ng/mL; Cmax (peak drug concentration) ([7]; 12.5 mg/kg): 1130 ng/mL; Cmin ([7]; 12.5 mg/kg): 140 ± 110 ng/mL; Tmax ([7]; 12.5 mg/kg): 8 h; minimal inhibitory concentration (MIC) [8]: 2 ng/mL (≈ 2.33 nM); Cure rate of removed cages ([9]; 3 mg/kg/12 h i.p.): 8% (1/12); Mean log10 CFU/ml ± SD in aspirated cage fluid, during treatment ([9]; 3 mg/kg/12 h i.p.): 4.76 ± 0.51 log10 CFU/ml; no. culture negative/total no., cage fluid during treatment ([9]; 3 mg/kg/12 h i.p.): 2/12; Mean log10 CFU/ml ± SD in aspirated cage fluid, after treatment ([9]; 3 mg/kg/12 h i.p.): 2.77 ± 0.53 log10 CFU/ml; no. culture negative/total no., cage fluid after treatment ([9]; 3 mg/kg/12 h i.p.): 4/12; Cure rate of removed cages ([9]; 12.5 mg/kg/12 h i.p.): 58%; Cure rate of removed cages ([9]; 12.5 mg/kg/12 h i.p., listed as Cpd 86): 58% (7/12); Mean log10 CFU/ml ± SD in aspirated cage fluid, during treatment ([9]; 12.5 mg/kg/12 h i.p.): 3.24 ± 0.27 log10 CFU/ml; no. culture negative/total no., cage fluid during treatment ([9]; 12.5 mg/kg/12 h i.p.): 5/12; Mean log10 CFU/ml ± SD in aspirated cage fluid, after treatment ([9]; 12.5 mg/kg/12 h i.p.): 1.57 ± 0.53 log10 CFU/ml; no. culture negative/total no., cage fluid after treatment ([9]; 12.5 mg/kg/12 h i.p.): 10/12; MBClog ([10]; 24 hour incubation): 0.008 μg/ml
7 | CCOC(=O)N1CCCC2CN(c3cc(O)c4nc5c6c7c8c(C)c(O)c6c(=O)c(c-5oc4c3)NC(=O)C(C)=CC=CC(C)C(O)C(C)C(O)C(C)C(OC(C)=O)C(C)C(OC)C=COC(C)(O8)C7=O)CC21 (centres unmarked) [Compound 147] | – | 60 (≈ 60.2 nM) | – | 500 (≈ 501 nM) | >8000 | 8 (≈ 8.02 nM) | 1000 (≈ 1000 nM) | –
8 | CCOC(=O)N1CCCC2CN(c3cc(O)c4nc5c6c7c8c(C)c(O)c6c(=O)c(c-5oc4c3)NC(=O)C(C)=CC=CC(C)C(O)C(C)C(O)C(C)C(O)C(C)C(OC)C=COC(C)(O8)C7=O)CC21 (centres unmarked) [Compound 148] | – | 8 (≈ 8.38 nM) | – | 500 (≈ 524 nM) | 8000 (≈ 8380 nM) | 0.12 (≈ 0.126 nM) | 2000 (≈ 2090 nM) | –
9 | COC1C=COC2(C)Oc3c(C)c(O)c4c(=O)c(c5oc6cc(N7CC8CCCN(C(C)=O)C8C7)cc(O)c6nc-5c4c3C2=O)NC(=O)C(C)=CC=CC(C)C(O)C(C)C(O)C(C)C(OC(C)=O)C1C (centres unmarked) [Compound 149] | – | 8 (≈ 8.27 nM) | – | 250 (≈ 259 nM) | >8000 | 2 (≈ 2.07 nM) | 1000 (≈ 1030 nM) | –
10 | COC1C=COC2(C)Oc3c(C)c(O)c4c(=O)c(c5oc6cc(N7CC8CCCN(C(C)=O)C8C7)cc(O)c6nc-5c4c3C2=O)NC(=O)C(C)=CC=CC(C)C(O)C(C)C(O)C(C)C(O)C1C (centres unmarked) [Compound 150] | – | 4 (≈ 4.32 nM) | – | 500 (≈ 541 nM) | >8000 | 0.06 (≈ 0.0649 nM) | 2000 (≈ 2160 nM) | –
11 | CO[C@H]1/C=C/O[C@@]2(C)Oc3c(C)c(O)c4c(=O)c(c5oc6cc(N7CC8CCC(C7)N8C)cc(O)c6nc-5c4c3C2=O)NC(=O)/C(C)=C\C=C\[C@H](C)[C@H](O)[C@@H](C)[C@@H](O)[C@@H](C)[C@H](OC(C)=O)[C@@H]1C [Compound 151] | – | – | – | – | – | – | – | MBC [11]: 156 ng/mL (≈ 169 nM)
12 | CO[C@H]1/C=C/O[C@@]2(C)Oc3c(C)c(O)c4c(=O)c(c5oc6cc(N7CC(N(C)C)C7)cc(O)c6nc-5c4c3C2=O)NC(=O)/C(C)=C\C=C\[C@H](C)[C@H](O)[C@@H](C)[C@@H](O)[C@@H](C)[C@H](OC(C)=O)[C@@H]1C [Compound 152] | – | – | – | – | – | – | – | MBC [11]: 469 ng/mL (≈ 522 nM)
13 | C[C@H]1COc2c(N3CCN(C)CC3)c(F)cc3c(=O)c(C(=O)O)cn1c23 [Levofloxacin, levofloxacin] | – | – | – | – | – | – | – | MBC [11]: 40000 ng/mL (≈ 111000 nM); Tmax ([12]; 5 mg/kg): 2 h; concentration at 12 h ([12]; 5 mg/kg): 10 ± 10 ng/mL
14 | CO[C@H]1/C=C/O[C@@]2(C)Oc3c(C)c(O)c4c(O)c(c(/C=N/N5CCN(C)CC5)c(O)c4c3C2=O)NC(=O)/C(C)=C\C=C\[C@H](C)[C@H](O)[C@@H](C)[C@@H](O)[C@@H](C)[C@H](OC(C)=O)[C@@H]1C [Rifampin, rifampin, reference compound] | – | – | – | – | – | – | – | Tmax ([7]; 12.5 mg/kg): two; MBC [11]: 3600 ng/mL (≈ 4370 nM); MIC ([8]; Staphylococcus aureus, read-out: minimal inhibitory concentration (MIC)): 16 ng/mL (≈ 19.4 nM); Mean log10 CFU/ml ± SD in aspirated cage fluid, during treatment ([9]; 12.5 mg/kg/12 h i.p.): 3.68 ± 0.59 log10 CFU/ml; no. culture negative/total no., cage fluid during treatment ([9]; 12.5 mg/kg/12 h i.p.): 11/24; Mean log10 CFU/ml ± SD in aspirated cage fluid, after treatment ([9]; 12.5 mg/kg/12 h i.p.): 1.43 ± 0.28 log10 CFU/ml; no. culture negative/total no., cage fluid after treatment ([9]; 12.5 mg/kg/12 h i.p.): 19/24; AUC ([12]; 12.5 mg/kg): 4560 ng·h/mL; Cmax ([12]; 12.5 mg/kg): 980 ng/mL; Tmax ([12]; 12.5 mg/kg): 2 h; concentration at 12 h ([12]; 12.5 mg/kg): 140 ± 90 ng/mL; MBC ([10]; Staphylococcus aureus, ATCC29213, 24 hour incubation): 800 ng/mL (≈ 972 nM)
